The values that follow come from patent US12071411B2, “Inhibitors of HIF-2α and methods of use thereof” (ARCUS BIOSCIENCES, INC., priority 2021, dated 2024).

The target in assay [1] is T1, HIF-2α (Homo sapiens, UniProt Q99814). The assay is described as follows: HIF-2α Luciferase Reporter Assay (serum free) in HIF-Luc-786-0 cells. It counts as cell-based. The following applies: Opti-MEM, 786-0 reporter cells, 20 hours incubation. As to the method:
(§1) Generation of HIF-2α Luciferase 786-0 Cell Line:
(§2) Stable cell lines were generated by transducing 786-0 cells (ATCC, CRL-1932) with Cignal Lenti HIF Luc Reporter lentivirus (CLS-007L, Qiagen) according to the manufacturer's guidelines. In brief, 0.3×10^6 786-0 cells were transduced with lentivirus at a multiplicity of infection (MOI) of 25 for 24 hours. After transduction, cells were replenished with fresh RPMI 1640 Medium (Cat. No. 11875085, Thermo Fisher) supplemented with 10% FBS (Cat. No. A3160502, Gibco), 2 mM GlutaMAX™ (Cat. No. 35050-061, Invitrogen) and 100 units of penicillin and 100 μg of streptomycin/mL (Cat. No 15070063, Thermo Fisher) for another 24 hours. Antibiotic selection was performed in cell media containing 4 μg/mL of puromycin. After 7 days of antibiotic selection, stable pools of surviving cells were expanded and used in a luciferase reporter assay.
HIF-2α Luciferase Reporter Assay (Serum Free):
On day one, 20 uL of HIF-Luc-786-0 cells in Opti-MEM™ (Cat. No. 31985088, Thermo Fisher) were seeded into each well of a 384 well white opaque plate (Corning 3570) and incubated at 37° C. and 5% CO2. Twenty microliters of 2× test compounds in Opti-MEM™ were added to cells after 4 hours of incubation. Final assay conditions comprised 20,000 cells per well in 1% DMSO with test compound concentrations ranging from 50 uM to 0 uM. After 20 hours incubation at 37° C. and 5% CO2, luciferase activity was determined using ONE-Glo™ Luciferase Assay Reagent (E6110, Promega) following the manufacture's recommended procedure. Briefly, 40 uL of ONE-Glo™ luciferase reagents were added to each well and luciferase signals were measured using an Envision 2102 Multilabel Reader. Percentage maximum activity in each test well was calculated based on DMSO (maximum activity) and no cell control wells (baseline activity). The IC50 values of the test compounds were determined from compound dose response curves fitted using a standard four parameter fit equation.

Assay [2] concerns the target T1, HIF-2α. As to the kind of experiment: HIF-2α Luciferase Reporter Assay (serum), HRE-luciferase 786-0 cells in 100% human serum. It counts as cell-based. Particulars: for IC50: 100% human serum, 786-0 reporter cells, overnight incubation, read-out: Serum Potency; for Serum Shift (approximate): ratio of IC50 in 100% serum to IC50 in serum free conditions. As to the method: as §1, §2
HIF-2α Luciferase Reporter Assay (Serum):
An HRE-luciferase stable reporter 786-0 cell line was maintained in active culture using RPMI 1640 (GIBCO) media supplemented with 1% penicillin-streptomycin, 1% GlutaMAX™, 10% FBS-One Shot (GIBCO) and 4 ug/ml of puromycin (Invitrogen). On the day of the assay, cells were harvested using StemPro™ Accutase™ cell dissociation reagent (GIBCO) and resuspended at 1.5 million cells per milliliter in Opti-MEM™ (GIBCO). 20 ul/well of the resuspended cells were dispensed into a 384 white tissue culture-treated microplate (Corning) and allowed to incubate at 37° C., 5% CO2 for 3 hours. Compounds were prepared by dispensing 0.8 ul of compound in 100% DMSO into a Greiner plate containing 40 ul/well of 100% human serum (Bioreclamation IVT). After 3 hours, media was removed via centrifugation at 500 RPM for 30 seconds and 30 ul/well of compound diluted in human serum was added. The plate was incubated overnight at 37° C., 5% CO2. The following day, ONE-Glo™ was prepared per vendors instructions. The cell plate was removed from the incubator and the human serum was removed from the plate using centrifugation at 500 RPM for 30 seconds. Following the removal of human serum, 40 ul/well of room temperature Opti-MEM™ was added to the plate and allowed to equilibrate to room temperature for 2 hours. 40 ul/well of ONE-Glo™ reagent was added and allowed to incubate for 10 minutes before reading the luminescence signal on the Envision (PerkinElmer). Data was analyzed using 4-parameter logistic equation to generate IC50.

The structures appear in SMILES notation. Where only a bound is given, the exact number is not on record here.

T1 sequence (Q99814 whole entry): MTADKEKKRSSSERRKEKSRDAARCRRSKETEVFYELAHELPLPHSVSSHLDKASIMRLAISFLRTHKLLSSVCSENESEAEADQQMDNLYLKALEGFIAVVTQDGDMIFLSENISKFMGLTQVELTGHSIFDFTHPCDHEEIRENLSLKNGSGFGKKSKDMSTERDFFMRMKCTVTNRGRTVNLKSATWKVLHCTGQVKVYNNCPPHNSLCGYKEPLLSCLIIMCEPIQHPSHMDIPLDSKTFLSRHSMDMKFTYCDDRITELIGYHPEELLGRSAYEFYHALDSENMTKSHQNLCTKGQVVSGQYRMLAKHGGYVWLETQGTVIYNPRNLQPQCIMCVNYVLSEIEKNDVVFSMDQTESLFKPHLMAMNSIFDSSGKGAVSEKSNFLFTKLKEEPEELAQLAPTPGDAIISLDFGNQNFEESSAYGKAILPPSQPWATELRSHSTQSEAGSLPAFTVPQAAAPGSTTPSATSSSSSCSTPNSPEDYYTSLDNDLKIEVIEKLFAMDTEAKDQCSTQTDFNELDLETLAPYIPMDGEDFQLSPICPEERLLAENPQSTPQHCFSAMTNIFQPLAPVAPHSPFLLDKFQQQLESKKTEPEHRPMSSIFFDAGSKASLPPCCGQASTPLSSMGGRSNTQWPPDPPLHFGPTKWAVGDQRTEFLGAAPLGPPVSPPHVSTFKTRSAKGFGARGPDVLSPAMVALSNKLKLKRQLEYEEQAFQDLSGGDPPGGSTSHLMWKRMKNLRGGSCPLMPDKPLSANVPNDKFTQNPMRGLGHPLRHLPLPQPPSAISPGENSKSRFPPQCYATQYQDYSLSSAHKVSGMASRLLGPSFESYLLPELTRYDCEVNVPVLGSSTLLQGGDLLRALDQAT

Compound `O[C@H]1c2c(C(F)(F)F)nn(CCc3ccco3)c2CC1(F)F` [Example 77, (4S)-5,5-difluoro-1-[2-(furan-2-yl)ethyl]-3-(trifluoromethyl)-1H,4H,5H,6H-cyclopenta[c]pyrazol-4-ol] had an IC50 in assay [1] of under 0.1 µM. Besides, in assay [2], the IC50 was over 1 µM and the “Serum Shift (approximate)” value is listed as 10.
The like results for `C[C@H](C#N)CCn1nc(C(F)(F)F)c2c1C[C@@H](F)[C@H]2O` [Example 83, (2S)-4-[(4S,5R)-5-fluoro-4-hydroxy-3-(trifluoromethyl)-1H,4H,5H,6H-cyclopenta[c]pyrazol-1-yl]-2-methylbutanenitrile] were, in that order, 0.1 to 1 µM, over 1 µM and 3.
With `CO[C@H](CCn1nc(C(F)(F)F)c2c1[C@@H](F)[C@@H](F)[C@H]2O)C(F)(F)F` [Example 131, (4S,5S,6R)-5,6-difluoro-1-[(3R)-4,4,4-trifluoro-3-methoxybutyl]-3-(trifluoromethyl)-5,6-dihydro-4H-cyclopenta[c]pyrazol-4-ol], the IC50 in assay [1] and in assay [2] was under 0.1 µM each time. In addition, in assay [2], the “Serum Shift (approximate)” value came to 2.
Take `CO[C@H]1C[C@@H](n2nc(C(F)(F)F)c3c2CC(F)(F)[C@H]3O)CCC1(F)F` (racemic) [Example 109, (4S)-1-[(1S,3S)-4,4-difluoro-3-methoxycyclohexyl]-5,5-difluoro-3-(trifluoromethyl)-1H,4H,5H,6H-cyclopenta[c]pyrazol-4-ol and (4S)-1-[(1R,3R)-4,4-difluoro-3-methoxycyclohexyl]-5,5-difluoro-3-(trifluoromethyl)-1H,4H,5H,6H-cyclopenta[c]pyrazol-4-ol]: the IC50 in assay [1] and in assay [2] was 0.1 to 1 µM throughout. Also, the “Serum Shift (approximate)” value in assay [2] came to 4.
Regarding `O[C@@H]1c2c(C(F)(F)F)nn([C@H]3CC[C@H](F)[C@H](F)C3)c2[C@H](F)C1(F)F` (single isomer, unassigned) [Example 154], the IC50 is under 0.1 µM in assay [1] and 0.1 to 1 µM in assay [2]. In addition, in assay [2], the “Serum Shift (approximate)” value was found to be 9.
For the compound `O[C@H]1c2c(C(F)(F)F)nn([C@H]3C[C@@H](COC(F)F)C3)c2CCC1(F)F` [Example 105, (4S)-1-[3-(difluoromethoxymethyl)cyclobutyl]-5,5-difluoro-3-(trifluoromethyl)-6,7-dihydro-4H-indazol-4-ol], in assay [1], the IC50 is over 1 µM.
On to `O[C@H]1c2c(C(F)(F)F)nn(CCCC(F)(F)F)c2CC[C@H]1F` [Example 51, (4S,5R)-5-fluoro-1-(4,4,4-trifluorobutyl)-3-(trifluoromethyl)-4,5,6,7-tetrahydroindazol-4-ol], for which, in assay [1], the IC50 is 0.1 to 1 µM. Further, in assay [2], the IC50 was 0.1 to 1 µM and the “Serum Shift (approximate)” value was 3.
Compound `CO[C@H](CCn1nc(S(C)(=O)=O)c2c1CC(F)(F)[C@H]2O)C(F)(F)F` (racemic) [Example 107, (4S)-5,5-difluoro-3-methylsulfonyl-1-[(3R)-4,4,4-trifluoro-3-methoxybutyl]-4,6-dihydrocyclopenta[c]pyrazol-4-ol and (4S)-5,5-difluoro-3-methylsulfonyl-1-[(3S)-4,4,4-trifluoro-3-methoxybutyl]-4,6-dihydrocyclopenta[c]pyrazol-4-ol] returned an IC50 in assay [1] of under 0.1 µM.
As for `CO[C@H]1CCCC[C@H]1n1nc(C(F)(F)F)c2c1CC(F)(F)[C@H]2O` (racemic) [Example 69, (4S)-5,5-difluoro-1-[(1R,2S)-2-methoxycyclohexyl]-3-(trifluoromethyl)-4,6-dihydrocyclopenta[c]pyrazol-4-ol and (4S)-5,5-difluoro-1-[(1S,2R)-2-methoxycyclohexyl]-3-(trifluoromethyl)-4,6-dihydrocyclopenta[c]pyrazol-4-ol], in assay [1], the IC50 was over 1 µM.
Same read-out and setting: the figure for `O[C@H]1c2c(C(F)(F)F)nn(CC(F)(F)C3CC3)c2CCC1(F)F` [Example 28, (4S)-1-(2-cyclopropyl-2,2-difluoroethyl)-5,5-difluoro-3-(trifluoromethyl)-4,5,6,7-tetrahydro-1H-indazol-4-ol] is over 1 µM.
Compound `O[C@H]1c2c(C(F)(F)F)nn(C[C@@H](F)C3CC3)c2CCC1(F)F` (single isomer, unassigned) [26/27 DIAST-1] showed an IC50 in assay [1] of over 1 µM.
`O[C@H]1c2c(C(F)(F)F)nn([C@H]3CC[C@H](F)[C@H](F)C3)c2[C@H](F)C1(F)F` (single isomer, unassigned) [Example 155]: the IC50 in assay [1] was over 1 µM.
Still for that read-out and setting: the figure for `C[C@]1(OC(F)F)C[C@@H](Cn2nc(C(F)(F)F)c3c2CCC(F)(F)[C@H]3O)C1` [Example 19, (4S)-1-[[3-(difluoromethoxy)-3-methylcyclobutyl]methyl]-5,5-difluoro-3-(trifluoromethyl)-6,7-dihydro-4H-indazol-4-ol] is over 1 µM.
The same measure, in the same setting: the figure for `O[C@H]1c2c(C(F)(F)F)nn([C@@H]3CCO[C@@H](C(F)(F)F)C3)c2CC1(F)F` (single isomer, unassigned) [92/93 DIAST-1] is under 0.1 µM.
The same measure, in the same setting: next, `COCC(C)CCn1nc(C(F)(F)F)c2c1CCC(F)(F)[C@H]2O` (stereo partly drawn) [Example 6, (4S)-5,5-difluoro-1-(4-methoxy-3-methylbutyl)-3-(trifluoromethyl)-6,7-dihydro-4H-indazol-4-ol]: over 1 µM; `O[C@H]1c2c(C(F)(F)F)nn(CCC3CCCO3)c2CCC1(F)F` (stereo partly drawn) [Example 34, (4S)-5,5-difluoro-1-[2-(oxolan-2-yl)ethyl]-3-(trifluoromethyl)-6,7-dihydro-4H-indazol-4-ol]: over 1 µM; `O[C@H]1c2c(C(F)(F)F)nn(Cc3cc(C(F)(F)F)no3)c2CCC1(F)F` [Example 4, (4S)-5,5-difluoro-3-(trifluoromethyl)-1-[[3-(trifluoromethyl)-1,2-oxazol-5-yl]methyl]-6,7-dihydro-4H-indazol-4-ol]: over 1 µM.
The compound `O[C@H]1c2c(C(F)(F)F)nn([C@@H]3CCO[C@H](C(F)(F)F)C3)c2[C@@H](F)[C@H]1F` (single isomer, unassigned) [150/151 DIAST-2] displayed an IC50 in assay [1] of over 1 µM.
The same measure, in the same setting: next, `CCC(F)(F)Cn1nc(C(F)(F)F)c2c1CCC(F)(F)[C@H]2O` [Example 29, (4S)-1-(2,2-difluorobutyl)-5,5-difluoro-3-(trifluoromethyl)-6,7-dihydro-4H-indazol-4-ol]: over 1 µM.
Same read-out and setting: the figure for `O[C@H]1c2c(C(F)(F)F)nn(-c3ccc(C(F)(F)F)nc3)c2CC1(F)F` [Example 68, (4S)-5,5-difluoro-3-(trifluoromethyl)-1-[6-(trifluoromethyl)pyridin-3-yl]-4,6-dihydrocyclopenta[c]pyrazol-4-ol] is under 0.1 µM; for `O[C@H]1c2c(C(F)(F)F)nn([C@H]3CC[C@H](F)C[C@@H]3F)c2CC1(F)F` (single isomer, unassigned) [97/98 DIAST-2] it is under 0.1 µM.
In assay [1], `O[C@H]1c2c(C(F)(F)F)nn(C3CCCCC3)c2CCC1(F)F` [Example 35, (4S)-1-cyclohexyl-5,5-difluoro-3-(trifluoromethyl)-6,7-dihydro-4H-indazol-4-ol] had an IC50 of over 1 µM.
Still for that read-out and setting: the figure for `F[C@H]1c2c(C(F)(F)F)nn(CCCC(F)(F)F)c2CCC1(F)F` [Example 48, (4S)-4,5,5-trifluoro-1-(4,4,4-trifluorobutyl)-3-(trifluoromethyl)-6,7-dihydro-4H-indazole] is over 1 µM.
